{
  "source": "patent US6489313B1",
  "about": "“Memory by the administration of Δ5-androstene-3β-ol-7,17-dione and 3β esters” (Humanetics Corporation, priority 1998, dated 2002)",
  "key": {"C57BL76 mice": {"tested_on": "C57BL76 mice", "assay": "Morris water maze procedure, scopolamine-induced amnesia", "type": "in vivo", "method": "Groups of 13 to 16 C57BL76 mice (35 gm) were tested in the Morris. water maze procedure by training the mice to locate the pedestal in less than 15 seconds in three consecutive trials. Immediately upon completion of training the mice in each of three groups were treated with scopolamine (1 mg/kg), scopolamine+DHEA, or scopolamine+Δ5-Androstene-3β-acetyl-7,17-dione."}, "Aged, two year old mice": {"tested_on": "Aged, two year old mice", "assay": "Morris water maze procedure, aged mice", "type": "in vivo", "conditions": "two weeks after treatment, DHEA 20 mg/kg or equimolar amount, control 36 seconds", "method": "Aged, two year old mice were tested in the Morris water maze procedure by training the mice to locate the pedestal in less than 15 seconds in three consecutive trials. Immediately upon completion of training one group of mice was treated with DHEA (20 mg/kg) and a second group treated with an eqimolar amount of Δ5-Androstene-3β-acetyl-7,17-dione. Two weeks after treatment the time to rescue was timed in the Morris water maze procedure at: Control 36 seconds, DHEA 27 seconds, and Δ5-Androstene-3β-acetyl-7,17-dione 13 seconds."}, "[1]": {"conditions": "C57BL76 mice (35 gm), scopolamine 1 mg/kg alone or with the steroid, six days after treatment, control 12.2±1.8"}},
  "data": [
    {"smiles": "CN1[C@@H]2C[C@@H](OC(=O)[C@H](CO)c3ccccc3)C[C@H]1[C@@H]1O[C@@H]12", "note": "[scopolamine]", "values": [
      {"measurement": "average time to rescue in the Morris water maze procedure", "setting": "C57BL76 mice; [1]", "result": "20.0 ± 3.6", "unit": "s"}
    ]},
    {"smiles": "CC(=O)O[C@H]1CC[C@@]2(C)C(=CC(=O)[C@@H]3[C@@H]2CC[C@]2(C)C(=O)CC[C@@H]32)C1", "note": "[Δ5-Androstene-3β-acetyl-7,17-dione]", "values": [
      {"measurement": "average time to rescue in the Morris water maze procedure", "setting": "C57BL76 mice; [1]", "result": "8.3 ± 1.8", "unit": "s"},
      {"measurement": "time to rescue in the Morris water maze procedure", "setting": "Aged, two year old mice", "result": 13, "unit": "s"}
    ]},
    {"smiles": "C[C@]12CC[C@H](O)CC1=CC[C@@H]1[C@@H]2CC[C@]2(C)C(=O)CC[C@@H]12", "note": "[DHEA, dehydroepiandrosterone]", "values": [
      {"measurement": "average time to rescue in the Morris water maze procedure", "setting": "C57BL76 mice; mouse, in vivo", "result": "9.7 ± 1.6", "unit": "s"},
      {"measurement": "time to rescue in the Morris water maze procedure", "setting": "Aged, two year old mice", "result": 27, "unit": "s"}
    ]}
  ]
}
